Assay [1] is described as follows: Cytotoxicity against human MDA435/LCC6MDR cells after 5 days by MTS assay. The class given is functional, cell-based. The note with it: 120 h.
The nature of assay [2]: Cytotoxicity against human MDA435/LCC6 cells after 5 days by MTS assay. The class given is functional, cell-based. As to conditions: MDA-435/LCC6, 120 h. (In general: Formazan colour is commonly taken as a measure of viable cells.)
Assay [3] in a line: Cytotoxicity against human MDA435/LCC6MDR cells after 3 days by MTS assay. Type of assay: ADME, cell-based. The note with it: 72 h.
The nature of assay [4]: Cytotoxicity against human MDA435/LCC6 cells after 3 days by MTS assay. Type of assay: cell-based. The note with it: MDA-435/LCC6, 72 h.
Assay [5] concerns L929. Briefly: Cytotoxicity against mouse L929 cells after 3 days by MTS assay. The note with it: L929, 72 h. Type of assay: cell-based.

Structures are written as SMILES.

As a reminder, the IC50 is the midpoint of a concentration-inhibition curve.

With `CC(=O)O[C@H]1C(=O)[C@@]2(C)[C@H]([C@H](OC(=O)c3ccccc3)[C@]3(O)C[C@H](OC(=O)[C@H](O)[C@@H](NC(=O)c4ccccc4)c4ccccc4)C(C)=C1C3(C)C)[C@]1(OC(C)=O)CO[C@@H]1C[C@@H]2O` [PACLITAXEL], the figures for the IC50 in assay [1] and in assay [2] were 0.149 µM and 0.0026 µM, respectively.
With `CCN(CC)c1ccc(Cc2c(Cc3ccc(OC)c(OC)c3)nc(NC(=O)c3cc(OC)c(OC)c(OC)c3)n2C)cc1`, the results for the IC50 in assay [3], in assay [4] and in assay [5] were 38.3 µM, 45.2 µM and 47.4 µM, respectively.
For the compound `CCN(CC)c1ccc(Cc2c(Cc3ccc(OC)c(OC)c3)nc(N(C(=O)/C=C/c3cc(OC)c(OC)c(OC)c3)C(=O)/C=C/c3cc(OC)c(OC)c(OC)c3)n2C)cc1`, the IC50 in assay [3] is 9.1 µM; in assay [4] it was 13.7 µM; in assay [5], 18.2 µM.

The values above are taken from ChEMBL document CHEMBL3286309, “4,5-Di-substituted benzyl-imidazol-2-substituted amines as the structure template for the design and synthesis of reversal agents against P-gp-mediated multidrug resistance breast cancer cells” (Eur J Med Chem, 2014).
